# US8309552B2, “Immunomodulating heterocyclic compounds” (Medigene AG, priority 2003, dated 2012)
# pEC50: −log10 of the molar value.
# Target: T1, CD80-CD28 interaction (Homo sapiens, UniProt P33681)
# T1 sequence (P33681 35-242 limits assumed): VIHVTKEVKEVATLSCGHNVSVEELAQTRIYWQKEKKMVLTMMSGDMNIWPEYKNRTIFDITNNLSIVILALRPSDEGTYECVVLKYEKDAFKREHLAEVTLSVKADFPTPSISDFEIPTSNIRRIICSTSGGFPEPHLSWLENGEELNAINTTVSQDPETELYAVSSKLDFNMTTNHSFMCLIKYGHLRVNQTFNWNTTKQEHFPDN
# Assay: Homogenous Time Resolved Fluorescence (HTRF) assay, cell free
# Format: binding
# Conditions: cell-free HTRF, compound concentration series 100 μM-1.7 nM, 4 hours at room temperature; read-out: Activity (EC50 in the HTRF assay)
# Experimental: Homogenous Time Resolved Fluorescence Assay
# The examples described above were tested in a cell free Homogenous Time Resolved Fluorescence (HTRF) assay to determine their activity as inhibitors of the CD80-CD28 interaction.
# In the assay, europium and allophycocyanin (APC) are associated with CD28 and CD80 indirectly (through antibody linkers) to form a complex, which brings the europium and APC into close proximity to generate a signal. The complex comprises the following six proteins: fluorescent label 1, linker antibody 1, CD28 fusion protein, CD80 fusion protein, linker antibody 2, and fluorescent label 2. The table below describes these reagents in greater detail.
# On formation of the complex, europium and APC are brought into proximity and a signal is generated.
# Non-specific interaction was measured by substituting a mouse Fab fragment (C215) for the CD80 mouse Fab fragment fusion protein (1.9 μg/ml). The assay was carried out in black 384 well plates in a final volume of 30 μl. Assay buffer: 50 mM Tris-HCl, 150 mM NaCl pH7.8, containing 0.1% BSA (w/v) added just prior to use.
# Compounds were added to the above reagents in a concentration series ranging between 100 μM-1.7 nM. The reaction was incubated for 4 hours at room temperature. Dual measurements were made using a Wallac Victor 1420 Multilabel Counter. First measurement: excitation 340 nm, emission 665 nm, delay 50 μs, window time 200 μs. second measurement: excitation 340 nm, emission 615 nm, delay 50 μs, window time 200 μs. Counts were automatically corrected for fluorescence crossover, quenching and background. The EC50 activities of compounds tested are recorded as: EC50:*=>10 μM,**=1-10 μM,***=<1 μM.
row,SMILES,pEC50
1,COCCNC(=O)c1ccc(-n2[nH]c3c(nnc4ccccc43)c2=O)cc1 [Example 9a],5.00 to 6.00
2,CN1CCN(CCCNC(=O)c2ccc(-n3[nH]c4c(nnc5ccccc54)c3=O)cc2)CC1 [Example 10],> 6.00
3,CN(C)CCNC(=O)c1ccc(-n2[nH]c3c(nnc4ccccc43)c2=O)cc1 [Example 11],> 6.00
4,O=C(NCCN1CCOCC1)c1ccc(-n2[nH]c3c(nnc4ccccc43)c2=O)cc1 [Example 12],> 6.00
5,O=C(NCCCN1CCOCC1)c1ccc(-n2[nH]c3c(nnc4ccccc43)c2=O)cc1 [Example 13],> 6.00
6,CC(C)=CCC/C(C)=C/CNC(=O)c1ccc(-n2[nH]c3c(nnc4ccccc43)c2=O)cc1 [Example 14],< 5.00
7,O=C(Nc1ccccc1)c1ccc(-n2[nH]c3c(nnc4ccccc43)c2=O)cc1 [Example 15],5.00 to 6.00
8,Cc1ccc2[nH]cc(CCNC(=O)c3ccc(-n4[nH]c5c(nnc6ccccc65)c4=O)cc3)c2c1 [Example 16],< 5.00
9,CC(C)(C)OC(=O)NCCNC(=O)c1ccc(-n2[nH]c3c(nnc4ccccc43)c2=O)cc1 [Example 17],5.00 to 6.00
10,CN1CCC(NC(=O)c2ccc(-n3[nH]c4c(nnc5ccccc54)c3=O)cc2)CC1 [Example 18],> 6.00
11,CC(NC(=O)c1ccc(-n2[nH]c3c(nnc4ccccc43)c2=O)cc1)c1ccccc1 (stereo not shown) [Example 19],< 5.00
12,O=C(NCCc1ccncc1)c1ccc(-n2[nH]c3c(nnc4ccccc43)c2=O)cc1 [Example 20],> 6.00
13,O=C(NCc1ccc([N+](=O)[O-])cc1)c1ccc(-n2[nH]c3c(nnc4ccccc43)c2=O)cc1 [Example 21],5.00 to 6.00
14,O=C(NCCCn1ccnc1)c1ccc(-n2[nH]c3c(nnc4ccccc43)c2=O)cc1 [Example 23],> 6.00
15,O=C(NC1CCCCCC1)c1ccc(-n2[nH]c3c(nnc4ccccc43)c2=O)cc1 [Example 24],5.00 to 6.00
16,CCCCC(CC)CNC(=O)c1ccc(-n2[nH]c3c(nnc4ccccc43)c2=O)cc1 (stereo not shown) [Example 25],< 5.00
17,CC(C)CCCC(C)NC(=O)c1ccc(-n2[nH]c3c(nnc4ccccc43)c2=O)cc1 (stereo not shown) [Example 26],> 6.00
18,CCCCCCC(C)NC(=O)c1ccc(-n2[nH]c3c(nnc4ccccc43)c2=O)cc1 (stereo not shown) [Example 27],< 5.00
19,C=C(C)C(=O)OCCNC(=O)c1ccc(-n2[nH]c3c(nnc4ccccc43)c2=O)cc1 [Example 28],5.00 to 6.00
20,CC(O)CCNC(=O)c1ccc(-n2[nH]c3c(nnc4ccccc43)c2=O)cc1 (stereo not shown) [Example 29],> 6.00
21,COc1ccc2[nH]cc(CCNC(=O)c3ccc(-n4[nH]c5c(nnc6ccccc65)c4=O)cc3)c2c1 [Example 31],5.00 to 6.00
22,CC1CCCCN1CCCNC(=O)c1ccc(-n2[nH]c3c(nnc4ccccc43)c2=O)cc1 (stereo not shown) [Example 32],> 6.00
23,CC(C)C(C)NC(=O)c1ccc(-n2[nH]c3c(nnc4ccccc43)c2=O)cc1 (stereo not shown) [Example 33],5.00 to 6.00
24,CCOC(=O)CC(C)NC(=O)c1ccc(-n2[nH]c3c(nnc4ccccc43)c2=O)cc1 (stereo not shown) [Example 34],5.00 to 6.00
25,O=C(NCCc1cnc[nH]1)c1ccc(-n2[nH]c3c(nnc4ccccc43)c2=O)cc1 [Example 35],5.00 to 6.00
26,O=C(NCCN1CCNC1=O)c1ccc(-n2[nH]c3c(nnc4ccccc43)c2=O)cc1 [Example 36],< 5.00

row,SMILES,pEC50
1,O=C(NCCN1CCN(Cc2ccccc2)CC1)c1ccc(-n2[nH]c3c(nnc4ccccc43)c2=O)cc1 [Example 37],> 6.00
2,CC(C)(C)C1CCC(NC(=O)c2ccc(-n3[nH]c4c(nnc5ccccc54)c3=O)cc2)CC1 (stereo not shown) [Example 38],< 5.00
3,O=C(NCc1cccc([N+](=O)[O-])c1)c1ccc(-n2[nH]c3c(nnc4ccccc43)c2=O)cc1 [Example 39],5.00 to 6.00
4,O=C(Nc1ccc(N2CCOCC2)cc1)c1ccc(-n2[nH]c3c(nnc4ccccc43)c2=O)cc1 [Example 40],5.00 to 6.00
5,O=C(NCCCc1ccccc1)c1ccc(-n2[nH]c3c(nnc4ccccc43)c2=O)cc1 [Example 41],5.00 to 6.00
6,O=C(NCCCNC(=O)c1ccc(-n2[nH]c3c(nnc4ccccc43)c2=O)cc1)OCc1ccccc1 [Example 42],5.00 to 6.00
7,CCCCCC(C)NC(=O)c1ccc(-n2[nH]c3c(nnc4ccccc43)c2=O)cc1 (stereo not shown) [Example 43],5.00 to 6.00
8,O=C(NC1CCCC1OCc1ccccc1)c1ccc(-n2[nH]c3c(nnc4ccccc43)c2=O)cc1 (stereo not shown) [Example 44],< 5.00
9,CCOC(CNC(=O)c1ccc(-n2[nH]c3c(nnc4ccccc43)c2=O)cc1)OCC [Example 45],5.00 to 6.00
10,CCNC(=O)c1ccc(-n2[nH]c3c(nnc4ccccc43)c2=O)cc1 [Example 46],> 6.00
11,O=C(NCCNc1ccccc1)c1ccc(-n2[nH]c3c(nnc4ccccc43)c2=O)cc1 [Example 47],> 6.00
12,CNCCNC(=O)c1ccc(-n2[nH]c3c(nnc4ccccc43)c2=O)cc1 [Example 48],> 6.00
13,CCNCCNC(=O)c1ccc(-n2[nH]c3c(nnc4ccccc43)c2=O)cc1 [Example 49],> 6.00
14,O=C(NCCOCCO)c1ccc(-n2[nH]c3c(nnc4ccccc43)c2=O)cc1 [Example 50],5.00 to 6.00
15,O=C(NCCO)c1ccc(-n2[nH]c3c(nnc4ccccc43)c2=O)cc1 [Example 51],> 6.00
16,CNCCCNC(=O)c1ccc(-n2[nH]c3c(nnc4ccccc43)c2=O)cc1 [Example 52],> 6.00
17,NCCCCNC(=O)c1ccc(-n2[nH]c3c(nnc4ccccc43)c2=O)cc1 [Example 54],> 6.00
18,CC(C)CC(C)NC(=O)c1ccc(-n2[nH]c3c(nnc4ccccc43)c2=O)cc1 (stereo not shown) [Example 55],> 6.00
19,O=C(NCc1ccc(F)cc1)c1ccc(-n2[nH]c3c(nnc4ccccc43)c2=O)cc1 [Example 56],5.00 to 6.00
20,O=C(NC1CCCCC1)c1ccc(-n2[nH]c3c(nnc4ccccc43)c2=O)cc1 [Example 57],5.00 to 6.00
21,CCCCN(CCCC)CCCNC(=O)c1ccc(-n2[nH]c3c(nnc4ccccc43)c2=O)cc1 [Example 58],> 6.00
22,O=C(NC1CCCCCCCCCCC1)c1ccc(-n2[nH]c3c(nnc4ccccc43)c2=O)cc1 [Example 59],< 5.00
23,CCN(CC)CCNC(=O)c1ccc(-n2[nH]c3c(nnc4ccccc43)c2=O)cc1 [Example 60],> 6.00
24,CN1CCCC1CCNC(=O)c1ccc(-n2[nH]c3c(nnc4ccccc43)c2=O)cc1 (stereo not shown) [Example 61],> 6.00
25,CC1CCC(NC(=O)c2ccc(-n3[nH]c4c(nnc5ccccc54)c3=O)cc2)CC1 (stereo not shown) [Example 62],5.00 to 6.00

# Same assay, conditions: inhibition of the CD80-CD28 interaction, 4 hours at room temperature; read-out: EC50 activity in the HTRF assay
row,SMILES,pEC50
1,"O=C(O)c1ccc(-n2[nH]c3c(nnc4ccccc43)c2=O)cc1 [Example 1, 4-(3-oxo-1,3-dihydro-2H-pyrazolo[4,3-c]cinnolin-2-yl)benzoic acid]",< 5.00
2,"O=C(O)c1ccc(-n2[nH]c3c(nnc4c(F)cccc43)c2=O)cc1 [Example 5, 4-(6-fluoro-3-oxo-1,3-dihydro-2H-pyrazolo[4,3-c]cinnolin-2-yl)benzoic acid]",< 5.00
3,"CN(C)CCCNC(=O)Nc1ccc(-n2[nH]c3c(nnc4ccccc43)c2=O)cc1 [Example 8, N-[3-(dimethylamino)propyl]-N′-[4-(3-oxo-1,3-dihydro-2H-pyrazolo[4,3-c]cinnolin-2-yl)phenyl]urea]",> 6.00
4,"CCOC(=O)c1ccc(-n2[nH]c3c(nnc4ccccc43)c2=O)cc1 [Example 9, 4-(3-oxo-1,3-dihydro-2H-pyrazolo[4,3-c]cinnolin-2-yl)benzoic acid ethyl ester]",5.00 to 6.00
